Results on seven compounds are retold here after US20060019329A1, “Method of screening for protein inhibitors and activators” (priority 1988, published 2006).

Assay [1] relates to R6-PKC3 cells (Rat 6 fibroblasts overproducing PKCbeta1). Description: Growth in soft agar (anchorage independence), R6-PKC3. In kind it is cell-based. The method, then:
(§1) Cells were seeded at a density of 10^4/plate in a series of 60 mm plates, in 5 ml DMEM plus 10% CS. Twenty-four hours later, cells in triplicate plates were trypsinized and counted. This point was designated “day 0.” The remaining cultures were then grown in the respective medium (i.e. plus or minus 100 ng/ml TPA) with fresh medium changes twice per week. Cell counts per plate were then determined on triplicate plates during the remainder of the growth curve (FIG. 3). The results obtained were analyzed for exponential doubling time and saturation density (Table 2). To assess growth in soft agar (anchorage independence), 2×10^4 cells were suspended in 2 ml of 0.3% Bacto agar (Difco Laboratories, Detroit, Mich.) in DMEM containing 20% fetal calf serum (FCS) and overlayed above a layer of 5 ml of 0.5% agar in the same medium, on 60 mm petri dishes. The cells were then overlaid with DMEM plus 20% FCS every 4 days. At the end of 30 days, colonies were stained with the vital stain 2-(p-iodophenyl)-3-(p-nitrophenyl)-5-phenyltetrazolinium chloride hydrate (INT) (Sigma Chemical Co., St. Louis, Mo.) for 48 hours at 37° C., in an incubator with 5% CO2 (Schaeffer and Friend, 1976), and the number of colonies counted under low power on an inverted phase microscope. The data are expressed as “cloning efficiency”, i.e. number of colonies greater than 0.05 mm per plate X 100 divided by the number of cells originally seeded per plate.
(§2) I also assayed these cell lines for their ability to form colonies in soft agar, since with rodent cells the acquisition of anchorage-independent growth often correlates with tumorigenicity (Freedman and Shin, 1974).

Assay [2] has as its system R6-PKC5 cells (Rat 6 fibroblasts overproducing PKCbeta1). Description: Growth in soft agar (anchorage independence), R6-PKC5. In kind it is cell-based. On the procedure:
as §1, §2

Assay [3] has as its system cell lines overproducing PKC. Description: Growth in agar of cell lines overproducing PKC (further screening of activators and inhibitors). Type of assay: cell-based, rat. The following applies: for modulation of the growth of the cells: PKC-overproducing cell lines, known activators or inhibitor of PKC. On the procedure: as §1
Additional compounds tested included the tumor promoters teleocidin, aplysiatoxin, and mezerein, all of which are known activators of PKC (O'Brian, et al., CSH, 1985).
Inhibition of the growth of the R6-PKC3 cells in agar in the presence of tamoxifen provided critical evidence that tamoxifen could inhibit PKC-mediated stimulation of cellular growth.

The subject of assay [4] is R6-C1 control cells (Rat 6 fibroblasts with pMV7 alone). Description: Growth in soft agar (anchorage independence), control R6-C1. Type of assay: cell-based. The method, then:
(§3) Cells were seeded at a density of 10^4/plate in a series of 60 mm plates, in 5 ml DMEM plus 10% CS. Twenty-four hours later, cells in triplicate plates were trypsinized and counted. This point was designated “day 0.” The remaining cultures were then grown in the respective medium (i.e. plus or minus 100 ng/ml TPA) with fresh medium changes twice per week. Cell counts per plate were then determined on triplicate plates during the remainder of the growth curve (FIG. 3). The results obtained were analyzed for exponential doubling time and saturation density (Table 2). To assess growth in soft agar (anchorage independence), 2×10^4 cells were suspended in 2 ml of 0.3% Bacto agar (Difco Laboratories, Detroit, Mich.) in DMEM containing 20% fetal calf serum (FCS) and overlayed above a layer of 5 ml of 0.5% agar in the same medium, on 60 mm petri dishes. […] At the end of 30 days, colonies were stained with the vital stain 2-(p-iodophenyl)-3-(p-nitrophenyl)-5-phenyltetrazolinium chloride hydrate (INT) (Sigma Chemical Co., St. Louis, Mo.) for 48 hours at 37° C., in an incubator with 5% CO2 (Schaeffer and Friend, 1976), and the number of colonies counted under low power on an inverted phase microscope. The data are expressed as “cloning efficiency”, i.e. number of colonies greater than 0.05 mm per plate X 100 divided by the number of cells originally seeded per plate. […]

Assay [5] relates to R6-C1 control cells. Description: Morphologic response to phorbol ester treatment, control R6-C1. In kind it is cell-based, rat. The method, then:
(§4) FIG. 4. Morphologic Responses of the Cell Lines to Phorbol Ester Treatment. Nearly confluent cultures of the three indicated cell lines were exposed to 100 ng/ml TPA in 0.1% dimethylsulfoxide (DMSO) solvent (“+TPA”) or 0.1% DMSO alone (“−TPA”), in DMEM plus 10% CS. Photographs were taken 24 hours later (Panels A and D) and 48 hours later (Panels B and E). Fresh medium plus or minus TPA was then added and photographs were then taken an additional 24 hours later (Panels C and F). (Magnification: 100×).
(§5) All of the cell lines were then exposed to a second, fresh dose of TPA (100 ng/ml) and examined 24 hours later (FIG. 4, Panel F), i.e., 72 hours after the first dose of TPA.

Assay [6] concerns R6-PKC5 cells. Description: Morphologic response to phorbol ester treatment, R6-PKC5. Type of assay: cell-based, rat. On the procedure:
as §4, §5

Assay [7] has as its system R6-C1 control cells. Description: Growth in monolayer culture, control R6-C1. Type of assay: cell-based, rat. The settings on record: R6C1 (control), + TPA 100 ng/ml. The method, then:
as §3

For assay [8], the system named is FDC-P1 cells overproducing PKC beta1. In words: Morphologic response of FDC-P1 cells overproducing PKCbeta1 to PKC activators. Type of assay: cell-based. The following applies: 100 nM TPA, after 12 hours. On the procedure:
Several cell lines were plated at 3×10E4 cells/ml and treated with 100 nM TPA. After 12 hours, representative fields were photographed. […] The latter clumps are easily visualized with standard cell stains such as Giemsa, and stain much darker than the corresponding control cells under these conditions.

Assay [9] relates to R6-PKC5 cells. Description: Growth in monolayer culture, R6-PKC5. The settings on record: R6-PKC5 (test), + TPA 100 ng/ml. In kind it is cell-based, rat. On the procedure:
as §3

Assay [10] has as its system R6-PKC3 cells. In words: Growth in monolayer culture, R6-PKC3. In kind it is cell-based, rat. On the procedure: as §1
It was also of interest to determine the growth rates of these cells in monolayer culture. Detailed growth curves were performed on R6-C1, R6-PKC3 and R6-PKC5 cells in 10% calf serum and DMEM medium, in the absence and presence of 100 ng/ml TPA.

Assay [11] deals with R6-PKC3 cells. In words: Morphologic response to phorbol ester treatment, R6-PKC3. Type of assay: cell-based, rat. The method, then: as §4, §5
Assay [12] addresses high affinity phorbol-ester binding sites (PKC). The following applies: read-out: affinity constant (Kd) of phorbol ester binding; control cell line R6-C1; intact cells; Scatchard; approximately the same in both cell lines.
Method: Cells were plated at 1×10^5 per 4 cm well on day 1, the medium was changed on day 2 and the cells then assayed on day 3. […] The plates were washed 3× with 4 ml ice-cold PBS. The cells were solubilized in 1 ml 1% SDS/10 mM DTT for 2 hrs at 37° C. The lysate was transferred to a scintillation vial and counted.
The subject of a further assay is PKC. The following applies: cell-free assay (O'Brian, et al, Cancer Res., 1985); cited from earlier work.
Where [13] appears, read: 24 hours after second 100 ng/ml dose (72 hours after first).
The mark [14] stands for this setting: initial exponential phase, DMEM plus 10% CS.
[15] abbreviates: R6-PKC3 (test), + TPA 100 ng/ml, 0.3% agar.
Setting [16] is: R6-PKC5 (test), + TPA 100 ng/ml, 0.3% agar.

On to `CC1CNCCN1S(=O)(=O)c1cccc2cnccc12` (stereo not shown) [H-7, 1-(5-Isoquinolinesulfonyl)-2-methyl-piperazine], for which the “Effic. of Growth In Agar (%)” value in assay [1] (R6-PKC3, inhibitor 2 μM) came to 25%; in assay [1] (R6-PKC3, inhibitor 5 μM), 22%; in assay [1] (R6-PKC3, inhibitor 10 μM), 17%; in assay [1] (R6-PKC3, inhibitor 50 μM) it was 4%; in [1] (R6-PKC3, inhibitor 100 μM), 0%; in assay [2] (R6-PKC5, inhibitor 2 μM), 21%. In addition, the “Effic. of Growth In Agar (%)” value is reported as 16% in assay [2] (R6-PKC5, inhibitor 5 μM); 4% in assay [2] (R6-PKC5, inhibitor 10 μM); 1% in assay [2] (R6-PKC5, inhibitor 50 μM); 0% in [2] (R6-PKC5, inhibitor 100 μM). Besides, the “modulation of the growth of the cells” value in assay [3] is “modulated the growth of the cells in the expected manner”.
Take `CCCCCCCCCCCCCC(=O)O[C@@H]1[C@@H](C)[C@@]2(O)[C@@H](C=C(CO)C[C@]3(O)C(=O)C(C)=C[C@@H]23)[C@@H]2C(C)(C)[C@]12OC(C)=O` [TPA, 12-O-tetradecanoylphorbol-13-acetate]: in [4] (R6-C1, TPA 100 ng/ml in agar medium), the “growth in agar” value is “still failed to grow in agar”. The “Agar Effic.” value stood at 0% in assay [4] (R6C1 (control), + TPA 100 ng/ml, 0.3% agar); 29.7% in assay [1] (setting [15]); 34.7% in assay [2] (setting [16]). Moreover, the “morphology after TPA” value with R6-C1 control cells [5] (24 hours after 100 ng/ml TPA) is “more elongated and dendritic cells and a criss-cross pattern”; in the assay with R6-C1 control cells [5] (48 hours after 100 ng/ml TPA) it was “returned to its normal appearance”; with R6-PKC5 cells [6] (48 hours after 100 ng/ml TPA, to a lesser extent than R6-PKC3), “continued to display an altered morphology”; in the assay on R6-PKC3 cells [11] (24 hours after 100 ng/ml TPA), “very long cytoplasmic processes and numerous refractile cell bodies”; with R6-PKC3 cells [11] (48 hours after 100 ng/ml TPA) it was “continued to display an altered morphology”. Also, the “morphologic response to second dose of TPA” value in the assay on R6-C1 control cells [5] (setting [13]) is “failed to respond”; in the assay with R6-PKC5 cells [6] (setting [13]), “only slight changes in morphology”; with R6-PKC3 cells [11] (setting [13]) it was “continued to display their altered morphology as well as an increase in cell density”. In addition, the “morphologic changes after TPA compared with control” value with R6-PKC5 cells [6] (24 hours after 100 ng/ml TPA) is “much more dramatic”. Besides, the “Monolayer Saturat. Density” value with R6-C1 control cells [7] (cells per 6 cm plate on day 11) is reported as 4.2 × 10^6; in the assay on R6-PKC5 cells [9] (cells per 6 cm plate on day 11) it was 7.0 × 10^6; with R6-PKC3 cells [10] (R6-PKC3 (test), + TPA 100 ng/ml, cells per 6 cm plate on day 11) it was 10.0 × 10^6. Also, the “Monolayer Doubling Time” value is 24.6 h with R6-C1 control cells [7] (setting [14]); 22.9 h in the assay with R6-PKC5 cells [9] (setting [14]); 21.5 h in the assay on R6-PKC3 cells [10] (R6-PKC3 (test), + TPA 100 ng/ml, initial exponential phase, DMEM plus 10% CS). Besides, the morphologic changes result in [8] was “profound morphologic changes”. In addition, the “Agar Colony Size” value in [1] (setting [15]) is on record as 0.15-0.35 mm; in [2] (setting [16]), 0.10-0.15 mm. The “colony sizes and cloning efficiencies in agar” value in assay [1] (R6-PKC3, TPA 100 ng/ml in agar medium) was “enhanced”; in assay [2] (R6-PKC5, TPA 100 ng/ml in agar medium), “enhanced”. Moreover, the “cell density when maintained in TPA for a longer period” value in the assay with R6-PKC3 cells [10] (R6-PKC3, monolayer, longer period in presence of TPA, cells detach from plate) is listed as “showed a decline in cell density”.
A word on the Kd: it is a measure of binding affinity in units of concentration. As to `CCCC(=O)O[C@@H]1[C@@H](C)[C@@]2(O)[C@@H](C=C(CO)C[C@]3(O)C(=O)C(C)=C[C@@H]23)[C@@H]2C(C)(C)[C@]12OC(=O)CCC` [3H-PDBu], the Kd in assay [12] is 16 nM.
For the compound `CO[C@@H](CC[C@H](C)[C@H]1O[C@@]23C[C@H](OC(=O)C[C@H]([C@@H](C)O)OC(=O)C[C@](O)(O2)[C@H](C)CC3(C)C)[C@@H]1C)c1cc(O)ccc1Br` [aplysiatoxin], the “modulation of the growth of the cells” value in assay [3] is given as “modulated the growth of the cells in the expected manner”.
As for `CC/C(=C(\c1ccccc1)c1ccc(OCCN(C)C)cc1)c1ccccc1` [Tamoxifen, tamoxifen], the “Effic. of Growth In Agar (%)” value in assay [1] (R6-PKC3, inhibitor 5 μM) is 27%; in assay [1] (R6-PKC3, inhibitor 20 μM), 22%; in [1] (R6-PKC3, inhibitor 50 μM) it was 15%; in assay [1] (R6-PKC3, inhibitor 100 μM), 6%; in assay [1] (R6-PKC3, inhibitor 200 μM), 0%; in [2] (R6-PKC5, inhibitor 5 μM), 19%. Also, the “Effic. of Growth In Agar (%)” value in assay [2] (R6-PKC5, inhibitor 20 μM) is 17%; in assay [2] (R6-PKC5, inhibitor 50 μM), 8%; in assay [2] (R6-PKC5, inhibitor 100 μM), 0%; in assay [2] (R6-PKC5, inhibitor 200 μM) it was 0%. Further, the “effect on PKC enzyme activity” value in the assay on PKC is on record as “inhibits PKC enzyme activity”. In addition, the “inhibition of growth in agar” value in assay [3] (all of the cell lines overproducing PKC) is reported as “completely inhibiting the growth in agar”.
For the compound teleocidin, the “modulation of the growth of the cells” value in [3] is recorded as “modulated the growth of the cells in the expected manner”.
Same read-out and setting: the value for `C=C(C)[C@@]12O[C@@]3(c4ccccc4)O[C@@H]1[C@@H]1[C@@H]4O[C@]4(CO)[C@@H](O)[C@]4(O)C(=O)C(C)=C[C@H]4[C@@]1(O3)[C@H](C)[C@H]2OC(=O)/C=C/C=C/c1ccccc1` [mezerein] was “modulated the growth of the cells in the expected manner”.
